According to patent publication US8846704B2, “Thiopyrimidine-based compounds and uses thereof” (YM Biosciences Austraila Pty Ltd, priority 2007, dated 2014):

What follows are compounds tested against T1, BaF3 TELJAK3 cells (Homo sapiens, UniProt P52333) (assay: Cellular screening, BaF3 TEL:JAK3 cells, Alamar Blue). Conditions: 40 hr, read-out: BafT_J3 IC50_nM.
T1 construct: fused on or other part: TEL (ETV6) N-terminal part, coding nucleotides 1-487, serves as the oligomerising partner; It is fused through a Sal I site to the JAK3 kinase domain and expressed from pTRE2 in BaF3 cells bearing pTET-off; P41212 (Transcription factor ETV6)
T1 sequence (P52333 1-1124): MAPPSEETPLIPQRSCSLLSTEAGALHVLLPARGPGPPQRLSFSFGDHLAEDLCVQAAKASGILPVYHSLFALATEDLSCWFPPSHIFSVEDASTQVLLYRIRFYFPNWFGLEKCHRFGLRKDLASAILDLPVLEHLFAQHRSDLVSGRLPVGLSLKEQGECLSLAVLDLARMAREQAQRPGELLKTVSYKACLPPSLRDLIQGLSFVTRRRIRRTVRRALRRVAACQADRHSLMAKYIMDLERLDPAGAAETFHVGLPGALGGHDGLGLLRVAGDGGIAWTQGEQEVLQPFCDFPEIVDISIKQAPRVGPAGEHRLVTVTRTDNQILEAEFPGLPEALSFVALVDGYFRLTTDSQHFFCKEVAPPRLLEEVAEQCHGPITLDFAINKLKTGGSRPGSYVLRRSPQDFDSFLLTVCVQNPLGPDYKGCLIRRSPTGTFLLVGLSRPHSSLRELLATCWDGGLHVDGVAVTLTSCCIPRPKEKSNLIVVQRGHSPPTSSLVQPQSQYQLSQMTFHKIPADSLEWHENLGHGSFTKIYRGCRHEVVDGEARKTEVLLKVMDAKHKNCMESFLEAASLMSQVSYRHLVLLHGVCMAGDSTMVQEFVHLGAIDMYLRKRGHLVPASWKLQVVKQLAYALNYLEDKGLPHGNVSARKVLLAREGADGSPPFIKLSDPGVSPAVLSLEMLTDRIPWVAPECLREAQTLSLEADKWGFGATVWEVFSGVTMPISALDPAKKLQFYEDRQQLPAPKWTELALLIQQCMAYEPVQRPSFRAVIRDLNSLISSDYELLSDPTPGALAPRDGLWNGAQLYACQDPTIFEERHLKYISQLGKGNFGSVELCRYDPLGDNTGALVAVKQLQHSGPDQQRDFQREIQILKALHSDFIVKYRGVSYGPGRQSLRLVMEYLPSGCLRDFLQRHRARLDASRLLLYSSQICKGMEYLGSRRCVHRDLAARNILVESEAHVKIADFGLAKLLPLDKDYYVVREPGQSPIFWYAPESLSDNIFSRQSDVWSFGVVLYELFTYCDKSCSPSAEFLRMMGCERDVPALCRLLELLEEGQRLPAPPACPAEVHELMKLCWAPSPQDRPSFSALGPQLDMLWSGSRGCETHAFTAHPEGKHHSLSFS
Assay type: cell-based
Procedure: For screening purposes, compounds were diluted in 96 well plates at a concentration of 20 μM. Plates were warmed at 37° C. for 30 minutes before the assay was performed.
The coding region encompassing nucleotides 1-487 of TEL was amplified by PCR using the oligonucleotides STEL (5′-GGAGGATCCTGATCTCTCTCGCTGTGAGAC-3′) [SEQ ID NO 14] and 3TEL (5′-AGGC GTCGACTTCTTCTTCATGGTTCTG-3′) [SEQ ID NO 15] and U937 mRNA as a template. A […] restriction site was incorporated into the STEL primer, and a Sal I restriction site was incorporated into the 3TEL primer. The regions encompassing the kinase domain of JAK2 (nucleotides 2994-3914; JAK2F 5′-ACGC GTCGACGGTGCCTTTGAAGACCGGGAT-3′ [SEQ ID NO 16]; JAK2R 5′-ATAGTTTAGCGGCCGCTCAGAATGAAGGTCATTT-3′) [SEQ ID NO 17] and JAK3 (nucleotides 2520-3469; JAK3F 5′-GAAGTCGACTATGCCTGCCAAGACCCCACGATCTT-3′) [SEQ ID NO 18] were generated by PCR using Taq DNA polymerase (Gibco/BRL) and […] as a template. A Sal I restriction site was incorporated into the forward primer of JAK2 and JAK3, a Not I site was incorporated into the JAK2 reverse primer and a Xba I site was added to the reverse primer of JAK3.
The TEL/Jak3 fusion was prepared by ligation of the JAK3 Sal I/Not I cleaved kinase domain PCR product with the BamH I/Sal I restriction digested TEL product, followed by ligation of the ligation product into the BamH I/Not I digested pTRE2, to give the TEL/Jak3 fusion plasmid pTELJAK3.
The growth factor dependant myelomonocytic cell line BaF3 bearing the pTET-off plasmid (Clontech) was transfected with either pTELJAK2 or pTELJAK3, and the transfected cells were selected for growth-factor independent cell growth. The BaF3 wild-type cells were cultured in DMEM containing 10% FCS, 10% WEHI 3B conditioned medium. The BaF3 TELJAK cells ([…]) were cultured in DMEM 10% Tet-System Approved FBS (without WEHI 3B conditioned medium).
Cell suspensions were prepared by harvesting cells from culture (the cells used in this test were in late log phase growth with high viability.) Cells were diluted in the appropriate growth medium, as described above, to 1.1× final concentration (from 50,000 cell/mL to 200,000 cell/mL, depending on cell line).
Compounds to be tested were added (10 μL, 10× final concentration) to a flat bottomed 96-well plate. The cellular suspension (90 μL per well) was then added, and the plate incubated for 40 hr at 37° C., 5% CO2. Alamar Blue 10 μL per well was added and the plates returned to the incubator for a further 4-6 hours. The plates were then read at 544 nm.

| Structure (SMILES) | GI50 [nM] |
| --- | --- |
| N#Cc1ncn(Cc2ccc(Sc3ccnc(Nc4ccc(N5CCOCC5)cc4)n3)cc2)c1C#N [Compound 201, 1-(4-(2-(4-morpholinophenylao)pyrimidin-4-ylthio)benzyl)-1H-imidazole-4,5-dicarbonitrile] | < 5000 |
| OCc1ccc(Sc2ccnc(Nc3ccc(N4CCOCC4)cc3)n2)cc1 [Compound 67, (4-(2-(4-morpholinophenylao)pyrimidin-4-ylthio)phenyl)methanol] | < 20000 |
| C=CC(=O)Nc1ccc(Sc2ccnc(Nc3ccc(N4CCN(C)CC4)cc3)n2)cc1 [Compound 238, N-(4-(2-(4-(4-methylpiperazin-1-yl)phenylao)pyrimidin-4-ylthio)phenyl)acrylamide] | < 1000 |
| CC#CC(=O)Nc1cccc(Sc2ccnc(Nc3cccc(N4CCOCC4)c3)n2)c1 [Compound 232, N-(3-(2-(3-morpholinophenylao)pyrimidin-4-ylthio)phenyl)but-2-ynamide] | < 5000 |
| Cc1cnc(Nc2ccc(N3CCOCC3)cc2)nc1Sc1ccc(N)nc1 [Compound 262, 4-(6-aopyridin-3-ylthio)-5-methyl-N-(4-morpholinophenyl)pyrimidin-2-ae] | > 20000 |
| O=C(/C=C\Cl)Nc1ccc(Sc2ccnc(Nc3ccc(N4CCOCC4)cc3)n2)cc1 [Compound 346, (Z)-3-chloro-N-(4-(2-(4-morpholinophenylao)pyrimidin-4-ylthio)phenyl)acrylamide] | < 1000 |
| CNC(=O)/C=C\C(=O)Nc1ccc(Sc2nc(Nc3ccc(N4CCOCC4)cc3)ncc2C)cc1 [Compound 389, N1-methyl-N4-(4-(5-methyl-2-(4-morpholinophenylao)pyrimidin-4-ylthio)phenyl)maleamide] | < 1000 |
| OCc1cccc(Sc2ccnc(Nc3ccc(N4CCOCC4)cc3)n2)c1 [Compound 62, (3-(2-(4-Morpholinophenylamino)pyrimidin-4-ylthio)phenyl)methanol] | < 20000 |
| CC#CC(=O)Nc1ccc(Sc2ccnc(Nc3cccc(N4CCOCC4)c3)n2)cc1 [Compound 233, N-(4-(2-(3-morpholinophenylao)pyrimidin-4-ylthio)phenyl)but-2-ynamide] | < 1000 |
| Cc1cnc(Nc2cccc(O)c2)nc1Sc1ccc(NC(=O)CCl)cc1 [Compound 194, 2-chloro-N-(4-(2-(3-hydroxyphenylao)-5-methylpyrimidin-4-ylthio)phenyl)acetamide] | < 1000 |
| Cc1cnc(Nc2ccc(O)cc2)nc1Sc1ccc(NC(=O)CCl)cc1 [Compound 193, 2-chloro-N-(4-(2-(4-hydroxyphenylao)-5-methylpyrimidin-4-ylthio)phenyl)acetamide] | < 1000 |
| CC#CC(=O)Nc1cccc(Nc2nccc(SC)n2)c1 [Compound 8, N-(3-(4-(methylthio)pyrimidin-2-ylao)phenyl)but-2-ynamide] | < 5000 |
| COc1ccc(Nc2ncc(C)c(Sc3ccc(N)cc3)n2)cc1OC [Compound 240, 4-(4-aophenylthio)-N-(3,4-dimethoxyphenyl)-5-methylpyrimidin-2-ae] | < 5000 |
| C=CC(=O)Nc1ccc(Sc2nc(Nc3ccc(N4CCOCC4)cc3)ncc2C)cc1CC [Compound 260, N-(2-ethyl-4-(5-methyl-2-(4-morpholinophenylao)pyrimidin-4-ylthio)phenyl)acrylamide] | < 5000 |
| Nc1ccc(Sc2nc(Nc3ccc(N4CCOCC4)cc3)ncc2F)cc1 [Compound 263, 4-(4-aophenylthio)-5-fluoro-N-(4-morpholinophenyl)pyrimidin-2-ae] | < 5000 |
| C=CC(=O)Nc1cccc(Nc2nccc(Sc3ccccn3)n2)c1 [Compound 2, N-(3-(4-(pyridin-2-ylthio)pyrimidin-2-ylamino)phenyl)acrylamide] | < 1000 |
| C=CC(=O)Nc1ccc(Sc2nc(Nc3ccc(N4CCC(O)C4)cc3)ncc2C)cc1 (stereo not drawn) [Compound 295, N-(4-(2-(4-(3-hydroxypyrrolidin-1-yl)phenylao)-5-methylpyrimidin-4-ylthio)phenyl)acrylamide] | < 1000 |
| c1cc(Sc2ccc(Cn3cnnn3)cc2)nc(Nc2ccc(N3CCOCC3)cc2)n1 [Compound 109, 4-(4-((1H-tetrazol-1-yl)methyl)phenylthio)-N-(4-morpholinophenyl)pyrimidin-2-ae] | < 20000 |
| C=CC(=O)Nc1ccc(Sc2nc(Nc3cccc(OC)c3)ncc2C)cc1 [Compound 235, N-(4-(2-(3-methoxyphenylao)-5-methylpyrimidin-4-ylthio)phenyl)acrylamide] | < 1000 |
| N#Cc1nnnn1Cc1ccc(Sc2ccnc(Nc3ccc(N4CCOCC4)cc3)n2)cc1 [Compound 155, 1-(4-(2-(4-morpholinophenylao)pyrimidin-4-ylthio)benzyl)-1H-tetrazole-5-carbonitrile] | < 20000 |
| C=CC(=O)Nc1ccc(Sc2nc(Nc3ccc(N4CCOCC4)cc3)ncc2C)c(C)c1 [Compound 163, N-(3-methyl-4-(5-methyl-2-(4-morpholinophenylao)pyrimidin-4-ylthio)phenyl)acrylamide] | < 1000 |
| N#CCC(=O)Nc1cccc(Sc2ccnc(Nc3ccc(N4CCOCC4)cc3)n2)c1 [Compound 24, N-(3-(2-(4-morpholinophenylamino)pyrimidin-4-ylthio)phenyl)-2-cyanoacetamide] | < 20000 |
| C=CC(=O)Nc1ccc(Sc2nc(Nc3cccc(NS(C)(=O)=O)c3)ncc2C)cc1 [Compound 288, N-(4-(5-methyl-2-(3-(methylsulfonamido)phenylao)pyrimidin-4-ylthio)phenyl)acrylamide] | < 1000 |
| C=CC(=O)Nc1cccc(Nc2nccc(Sc3ccccc3)n2)c1 [Compound 16, N-(3-(4-(phenylthio)pyrimidin-2-ylamino)phenyl)acrylamide] | < 1000 |
| C=CC(=O)Nc1ccc(Sc2nc(Nc3cccc(N4CCOCC4)c3)ncc2C)cc1 [Compound 237, N-(4-(5-methyl-2-(3-morpholinophenylao)pyrimidin-4-ylthio)phenyl)acrylamide] | < 1000 |
| C=CC(=O)NCc1ccc(Sc2ccnc(Nc3ccc(N4CCOCC4)cc3)n2)cc1 [Compound 111, N-(4-(2-(4-morpholinophenylamino)pyrimidin-4-ylthio)benzyl)acrylamide] | < 1000 |
| C=CC(=O)Nc1cccc(Sc2ccnc(Nc3ccc(N4CCOCC4)cc3)n2)c1 [Compound 23, N-(3-(2-(4-morpholinophenylamino)pyrimidin-4-ylthio)phenyl)acrylamide] | < 1000 |
